Source: patent EP0084677A1, “New compound having mucoregulating and fluidifying activity, process for its production and relative pharmaceutical compositions” (priority 1982, dated 1983)

Columns and labels:
[1] = test system: tracheo-bronchial mucus from rabbit; experiment: Fluidifying activity "in vivo" (microviscosimeter on tracheo-bronchial mucus); conditions: 500 mg/kg/os
male Wistar rat = experiment: Bronchosecretogogue activity (method of Mawatari); assay type: in vivo; conditions: 500 mg/kg/os, FlNa = Sodium fluoresceine
male rabbit = experiment: Mucosecretolytic activity (technique of Giraldez et al.); assay type: in vivo; conditions: 500 mg/kg/os
Wistar rat = experiment: Acute toxicity (Litchfield and Wilcoxon method), rat; assay type: in vivo
Description: (§1) The acute toxicity has been determined in Swiss mouse and in Wistar rat for different administra tion routes, according to the method of Litch- field J.T. and Wilcoxon LJ. Pharm. Exp. Therap. 96, 99-113 (1949)]. The results obtained are reported in the following Table I; from the same it can be pointed out how AFP 736 is endowed with a very low acute toxicity.

Swiss mouse = experiment: Acute toxicity (Litchfield and Wilcoxon method), mouse; assay type: in vivo
Description: as §1

Compound | % Reduction of mucus viscosity [1] [%] | % Increase of FlNa in comparison with controls (male Wistar rat) [%] | % Increase of secretion in comparison with controls (male rabbit) [%] | LD50 (Wistar rat; i.p.) [mg/kg] | LD50 (Wistar rat; os) [mg/kg] | LD50 (Swiss mouse; i.p.) [mg/kg] | LD50 (Swiss mouse; os) [mg/kg]
COc1ccccc1O [Guaiacol, 2-methoxyphenol] | 4.1 |  |  |  |  |  | 
NC(CSCC(=O)O)C(=O)O (centres unmarked) [Carboxy-methylcysteine, carboxymethylcysteine] |  | 39.7 | 40.2 |  |  |  | 
5-[(2-metho xy-phenoxy) caxbonyloxy]- α,α, 4-trimethyl-3-cyclohexen-1-methanol [AFP 736] | 32.2 | 79.3 | 45.5 | 2340 | >4000 | 1750 | 3100
CC1=CCC(C(C)(C)O)CC1O (centres unmarked) [Sobrerol, 2-methyl-5-(1-hydroxy-1-methyl-ethyl)-2-cyclohexen-1-ol] | 15.6 | 33.4 | 36.8 |  |  |  | 
COc1ccccc1OCC(O)CO (centres unmarked) [Guaiphe-nesine, guaiphenesin] |  | 12.6 |  |  |  |  | 
